How the values were obtained:
Endothelin-1 receptor = molecular target: T1, Endothelin-1 receptor (Rattus norvegicus, UniProt P26684); assay: Concentration required to produce 50% inhibition of binding against ET A receptor obtained from rat thoracic aortic membrane
T1 sequence (P26684 whole entry): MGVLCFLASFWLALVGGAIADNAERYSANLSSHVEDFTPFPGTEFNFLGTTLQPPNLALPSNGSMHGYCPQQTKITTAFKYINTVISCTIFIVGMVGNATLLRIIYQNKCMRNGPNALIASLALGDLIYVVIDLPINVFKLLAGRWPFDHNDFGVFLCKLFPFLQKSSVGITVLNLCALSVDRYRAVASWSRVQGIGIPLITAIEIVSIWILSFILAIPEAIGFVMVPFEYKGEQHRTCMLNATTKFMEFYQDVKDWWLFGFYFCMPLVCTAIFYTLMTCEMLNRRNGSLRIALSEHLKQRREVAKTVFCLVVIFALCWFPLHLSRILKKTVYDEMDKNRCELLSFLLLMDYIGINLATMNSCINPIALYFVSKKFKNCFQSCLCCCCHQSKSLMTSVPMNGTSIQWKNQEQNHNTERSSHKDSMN

[1] = molecular target: T2, Endothelin receptor type B (Rattus norvegicus, UniProt P21451); assay: Concentration required to produce 50% inhibition of binding against ET B receptor obtained from rat brain membrane
T2 sequence (P21451 whole entry): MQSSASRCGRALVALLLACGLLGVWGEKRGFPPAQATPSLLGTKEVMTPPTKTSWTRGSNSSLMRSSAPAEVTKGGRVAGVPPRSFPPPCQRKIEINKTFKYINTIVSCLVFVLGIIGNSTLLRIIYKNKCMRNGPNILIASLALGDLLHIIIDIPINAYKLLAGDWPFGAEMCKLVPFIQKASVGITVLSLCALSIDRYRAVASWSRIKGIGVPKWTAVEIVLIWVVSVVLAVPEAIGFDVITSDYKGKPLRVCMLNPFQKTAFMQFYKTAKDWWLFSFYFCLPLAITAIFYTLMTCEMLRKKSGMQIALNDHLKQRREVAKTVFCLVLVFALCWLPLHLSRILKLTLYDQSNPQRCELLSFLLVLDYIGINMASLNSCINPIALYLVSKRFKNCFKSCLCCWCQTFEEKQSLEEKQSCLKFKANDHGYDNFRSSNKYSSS

Compound	pIC50 (Endothelin-1 receptor)	pIC50 [1]
CC[C@@H](C)[C@H](NC(=O)[C@H](CC(=O)O)NC(=O)[C@H](CC(C)C)NC(=O)[C@H](Cc1cnc[nH]1)NC(=O)[C@H](CS)NC(=O)[C@H](Cc1ccccc1)NC(=O)[C@H](Cc1ccc(O)cc1)NC(=O)[C@@H](NC(=O)[C@H](CS)NC(=O)[C@H](CCC(=O)O)NC(=O)[C@H](CCCCN)NC(=O)[C@H](CC(=O)O)NC(=O)[C@H](CCSC)NC(=O)[C@H](CC(C)C)NC(=O)[C@H](CO)NC(=O)[C@H](CO)NC(=O)[C@H](CS)NC(=O)[C@H](CO)NC(=O)[C@@H](N)CS)C(C)C)C(=O)N[C@H](Cc1ccccc1)C(=O)N[C@@H](Cc1c[nH]c2ccccc12)C(=O)O [Endothelin-1 analogue]	6.07	8.6
CC[C@H](C)[C@H](NC(=O)[C@H](CC(=O)O)NC(=O)[C@H](CC(C)C)NC(=O)[C@H](Cc1cnc[nH]1)NC(=O)[C@H](CS)NC(=O)[C@H](Cc1ccccc1)NC(=O)[C@H](Cc1ccc(O)cc1)NC(=O)[C@@H](NC(=O)[C@H](CS)NC(=O)[C@H](CCC(=O)O)NC(=O)[C@H](CCCCN)NC(=O)[C@H](CC(=O)O)NC(=O)[C@H](CCSC)NC(=O)[C@H](CC(C)C)NC(=O)[C@H](CO)NC(=O)[C@H](CO)NC(=O)[C@H](CS)NC(=O)[C@H](CO)NC(=O)[C@@H](N)CS)C(C)C)C(=O)N[C@@H](C)C(=O)N[C@@H](Cc1c[nH]c2ccccc12)C(=O)O [Endothelin-1 analogue]	7.53	9.4
CC[C@H](C)[C@H](NC(=O)[C@H](CC(=O)O)NC(=O)[C@H](CC(C)C)NC(=O)[C@H](Cc1cnc[nH]1)NC(=O)[C@H](CS)NC(=O)[C@H](Cc1ccccc1)NC(=O)[C@H](Cc1ccc(O)cc1)NC(=O)[C@@H](NC(=O)[C@H](CS)NC(=O)[C@H](CCC(=O)O)NC(=O)[C@H](CCCCN)NC(=O)[C@H](CC(=O)O)NC(=O)[C@H](CCSC)NC(=O)[C@H](CC(C)C)NC(=O)[C@H](CO)NC(=O)[C@H](CO)NC(=O)[C@H](CS)NC(=O)[C@H](CO)NC(=O)[C@@H](N)CS)C(C)C)C(=O)N[C@H](C(=O)N[C@@H](Cc1c[nH]c2ccccc12)C(=O)O)C1CCCCC1 [Endothelin-1 analogue]	9.88	10
CC[C@H](C)[C@H](NC(=O)[C@H](CC(=O)O)NC(=O)[C@H](CC(C)C)NC(=O)[C@H](Cc1cnc[nH]1)NC(=O)[C@H](CS)NC(=O)[C@H](Cc1ccccc1)NC(=O)[C@H](Cc1ccc(O)cc1)NC(=O)[C@@H](NC(=O)[C@H](CS)NC(=O)[C@H](CCC(=O)O)NC(=O)[C@H](CCCCN)NC(=O)[C@H](CC(=O)O)NC(=O)[C@H](CCSC)NC(=O)[C@H](CC(C)C)NC(=O)[C@H](CO)NC(=O)[C@H](CO)NC(=O)[C@H](CS)NC(=O)[C@H](CO)NC(=O)[C@@H](N)CS)C(C)C)C(=O)N[C@H](C)C(=O)N[C@@H](Cc1c[nH]c2ccccc12)C(=O)O [Endothelin-1 analogue]	5.77	7.96

The next lines start with the values.

pIC50 (Endothelin-1 receptor)	pIC50 [1]	Compound
7.6	10	CCC[C@@H](NC(=O)[C@@H](NC(=O)[C@H](CC(=O)O)NC(=O)[C@H](CC(C)C)NC(=O)[C@H](Cc1cnc[nH]1)NC(=O)[C@H](CS)NC(=O)[C@H](Cc1ccccc1)NC(=O)[C@H](Cc1ccc(O)cc1)NC(=O)[C@@H](NC(=O)[C@H](CS)NC(=O)[C@H](CCC(=O)O)NC(=O)[C@H](CCCCN)NC(=O)[C@H](CC(=O)O)NC(=O)[C@H](CCSC)NC(=O)[C@H](CC(C)C)NC(=O)[C@H](CO)NC(=O)[C@H](CO)NC(=O)[C@H](CS)NC(=O)[C@H](CO)NC(=O)[C@@H](N)CS)C(C)C)[C@H](C)CC)C(=O)N[C@@H](Cc1c[nH]c2ccccc12)C(=O)O [Endothelin-1 analogue]
6.13	7.55	CC[C@@H](C)[C@H](NC(=O)[C@H](CC(=O)O)NC(=O)[C@H](CC(C)C)NC(=O)[C@H](Cc1cnc[nH]1)NC(=O)[C@H](CS)NC(=O)[C@H](Cc1ccccc1)NC(=O)[C@H](Cc1ccc(O)cc1)NC(=O)[C@@H](NC(=O)[C@H](CS)NC(=O)[C@H](CCC(=O)O)NC(=O)[C@H](CCCCN)NC(=O)[C@H](CC(=O)O)NC(=O)[C@H](CCSC)NC(=O)[C@H](CC(C)C)NC(=O)[C@H](CO)NC(=O)[C@H](CO)NC(=O)[C@H](CS)NC(=O)[C@H](CO)NC(=O)[C@@H](N)CS)C(C)C)C(=O)N[C@H](Cc1cnc[nH]1)C(=O)N[C@@H](Cc1c[nH]c2ccccc12)C(=O)O [Endothelin-1 analogue]
